Test results reported in EP0198508A1, “L-phosphoserine salts, a process for the preparation thereof and pharmaceutical compositions containing them” (LABORATORI PROPHIN S.p.A., priority 1985, dated 1986).
Structures can show the parent of a compound that is named as a salt. Marks after values point to notes of the source that are not given here.

How the values were obtained:
[1] = test system: Wistar rats; assay: Shuttle box test: acquirement of conditioned avoidance responses (CARs); assay type: in vivo; details: for CARs: mean + ES; for effect on number of conditioned responses and percentage of learners (in words): young and elderly rats, PR 156 tested only on young rats
Protocol: (§1) Male young and elderly Wistar rats, weighing respectively […] and 580 g, were used.
(§2) The test compounds, dissolved in physiological saline, were administered orally to young and elderly animals, at doses of 5, lO and 20 mg/kg. Phosphoserine dissolved in physiological saline was administered at equimolecular doses (1.8, 3.6 and 7.2 mg/kg). The control animals were administered with the sole vehicle. The administrations were carried out once a day during 20 days, the last administration being effected 1 hour before the tests.
The following behavioral tests were carried out: • 1) Shuttle box test: to evaluate the acquirement of conditioned avoidance responses (CARs).

[2] = test system: elderly rats; assay: Despair test: antidepressant activity; assay type: in vivo, Wistar rats; details: for DURATION OF STILLNESS: Elderly rats, mean + SEM; for effect on stillness (in words): summary in text of Table 3, elderly rats
Protocol: as §1, §2
3. Despair test: to estimate the antidepressant activity on the elderly rats.

[3] = test system: Wistar rats; assay: Dark box test: effect on memory capability; assay type: in vivo; details: for LATENCY (seconds): averages; for effect on acquirement of avoidance responses (in words): summary of Table 2, young and elderly rats
Protocol: as §1, §2
2. Dark box test: to further evaluate the effect on memory capability of the animals.

[4] = Young rats, 5 mg/kg orally once a day during 20 days, 5 mg/kg
[5] = Young rats, 10 mg/kg orally once a day during 20 days, 10 mg/kg
[6] = Elderly rats, 5 mg/kg orally once a day during 20 days
[7] = Elderly rats, 10 mg/kg orally once a day during 20 days
[8] = Elderly rats, 20 mg/kg orally once a day during 20 days
[9] = Young rats, 20 mg/kg orally once a day during 20 days
[10] = Elderly rats, 1.8 mg/kg orally once a day during 20 days
[11] = Elderly rats, 3.6 mg/kg orally once a day during 20 days
[12] = Elderly rats, 7.2 mg/kg orally once a day during 20 days
[13] = Young rats, 1.8 mg/kg orally once a day during 20 days
[14] = Young rats, 3.6 mg/kg orally once a day during 20 days
[15] = Young rats, 7.2 mg/kg orally once a day during 20 days

## N[C@@H](COP(=O)(O)O)C(=O)O [PR 156, L-Phosphoserine salt with L-Arginine 1:2]
[1]; [4]
  LEARNERS (%): 100.0%
  CARs: 23.4 + 1.9**
[1]; [5]
  LEARNERS (%): 100.0%
  CARs: 24.0 + 1.8**
[1]
  effect on number of conditioned responses and percentage of learners (in words): proved also to be effective

## N[C@@H](COP(=O)(O)O)C(=O)O [PR 157, L-Phosphoserine salt with L-Arginine and L-Lysine]
[2]; 5 mg/kg orally once a day during 20 days
  DURATION OF STILLNESS: 280.2 + 20.3*
[2]; 10 mg/kg orally once a day during 20 days
  DURATION OF STILLNESS: 263.1 + 33.4*
[2]; 20 mg/kg orally once a day during 20 days
  DURATION OF STILLNESS: 236.7 + 28.9*
[2]
  effect on stillness (in words): showed a dose-related reduction in the stillness of the elderly rats
[1]; [6]
  LEARNERS (%): 25.0%
  CARs: 7.9 + 0.3*
[1]; [7]
  LEARNERS (%): 50.0** %
  CARs: 11.5 + 0.3*
[1]; [8]
  LEARNERS (%): 50.0** %
  CARs: 18.6 + 0.4*
[1]; [4]
  LEARNERS (%): 50.0%
  CARs: 19.4 + 0.4*
[1]; [5]
  LEARNERS (%): 75.0** %
  CARs: 22.2 + 1.4*
[1]; [9]
  LEARNERS (%): 100.0** %
  CARs: 24.4 + 1.4*
[1]
  effect on number of conditioned responses and percentage of learners (in words): caused an increase in the number of conditioned responses as well as in the percentage of learners, both in young and elderly animals
[3]; [6]
  LATENCY (seconds): (12) 46.0* seconds
[3]; [7]
  LATENCY (seconds): (12) 79.4* seconds
[3]; [8]
  LATENCY (seconds): (12) 82.0* seconds
[3]; Young rats, 5 mg/kg orally once a day during 20 days
  LATENCY (seconds): (12) 112.3* seconds
[3]; Young rats, 10 mg/kg orally once a day during 20 days
  LATENCY (seconds): (12) 161.5* seconds
[3]; [9]
  LATENCY (seconds): (12) 265.1* seconds
[3]
  effect on acquirement of avoidance responses (in words): caused a dose-related improvement in the acquirement of avoidance responses both in young and elderly animals

## N[C@@H](COP(=O)(O)O)C(=O)O [Phosphoserine]
[2]; 1.8 mg/kg orally once a day during 20 days
  DURATION OF STILLNESS: 301.0 + 31.4*
[2]; 3.6 mg/kg orally once a day during 20 days
  DURATION OF STILLNESS: 291.7 + 32.7*
[2]; 7.2 mg/kg orally once a day during 20 days
  DURATION OF STILLNESS: 265.8 + 24.7*
[2]
  effect on stillness (in words): showed a dose-related reduction in the stillness of the elderly rats
[1]; [10]
  LEARNERS (%): 25.0%
  CARs: 5.9 + 0.4*
[1]; [11]
  LEARNERS (%): 37.5* %
  CARs: 6.2 + 0.5*
[1]; [12]
  LEARNERS (%): 37.5** %
  CARs: 9.2 + 0.6*
[1]; [13]
  LEARNERS (%): 50.0%
  CARs: 16.1 + 0.5
[1]; [14]
  LEARNERS (%): 50.0%
  CARs: 17.6 + 0.5
[1]; [15]
  LEARNERS (%): 75.0%
  CARs: 17.2 + 0.6
[1]
  effect on number of conditioned responses and percentage of learners (in words): caused similar effects on the elderly animals only
[3]; [10]
  LATENCY (seconds): (12) 34.8 seconds
[3]; [11]
  LATENCY (seconds): (12) 50.7* seconds
[3]; [12]
  LATENCY (seconds): (12) 65.0* seconds
[3]; [13]
  LATENCY (seconds): (12) 97.5* seconds
[3]; [14]
  LATENCY (seconds): (12) 110.2* seconds
[3]; [15]
  LATENCY (seconds): (12) 186.0* seconds
[3]
  effect on acquirement of avoidance responses (in words): proved to be effective only on the elderly animals
